“Also recorded” adds a separate entry of the source. Read-outs that look alike come from different tables or passages of the source.
Key:
human dendritic cells = format: cell-based
COS cells = format: cell-based; conditions: pCMVβ DNA; medium with chloroquine; 5 hours; triplicate; FIG. 7
[1] = Photon correlation spectroscopy (PCS) particle size of K6CL22-DNA complexes; format: physicochemical
[2] = Zeta potential analysis of K6CL22-DNA complexes; format: physicochemical; conditions: peptide:DNA ratio 1.4:1; Hepes
cells = format: cell-based

Row | Substance | optimal peptide:DNA ratio for transfection (human dendritic cells; […], FIGS. 16 and 17) | transfection efficiency, CL26-complexed DNA compared to CL22-complexed DNA (human dendritic cells; […], FIGS. 16 and 17) | transfection efficiency, CL26-complexed DNA compared to CL22-complexed DNA (human dendritic cells; peptide/DNA ratio between 1 and 1.8, FIG. 18) | transfection of COS cells (β-galactosidase activity, relative light units per mg of protein) (COS cells) | transfection of dendritic cells (human dendritic cells; complexes of K6Cl22 peptide and pCMVb) | transfection efficiency, CL22-complexed DNA compared to CL26-complexed DNA (human dendritic cells; peptide/DNA ratio between 2 and 2.6, FIG. 18) | peptide/DNA ratio with highest transfection efficiency (human dendritic cells; ratio varied 1.2-2.6, 40 μM chloroquine, […], FIG. 10) | size of large particles/aggregates of complex ([1]; 150 mM NaCl, after one hour at room temperature, DNA 40 μg/ml) | average (Zav) particle size ([1]; K6CL22-DNA complexes) | average ratio at which aggregation occurs ([1]; K6CL22-DNA complexes) [μg peptide/μg DNA] | ratio range in which aggregation occurs ([1]; K6CL22-DNA complexes) | zeta potential of the complex [2] | effect of coadministered chloroquine on transfection efficiency (cells)
1 | H-KKKKKKKKKKKKGGFLGFWRGENGRKTRSAYERMCNILKGK-OH [CL26] | 1.6 mg CL26:1 mg DNA | higher efficiency | higher efficiency |  |  |  |  |  |  |  |  |  | 
2 | NH2-KKKKKKGGFLGFWRGENGRKTRSAYERMCNILKGK-COOH (H-KKKKKKGGFLGFWRGENGRKTRSAYERMCNILKGK-OH) [K6CL22] | 1.6-2.2 mg CL22:1 mg DNA |  |  | have been transfected; also recorded: very efficient transfection | have been transfected | greater | 1.4-2.0 | approx. 100 nm | approximately 100 nm | 1.4 | 1.2-1.6 μg peptide/μg DNA | zero | Increased transfection efficiency

From patent US6689757B1, “Methods for vaccination and vaccines therefor” (M.L. Laboratories PLC, priority 1996, dated 2004)
